The values that follow come from US20200246317A1, “METHODS OF TREATING DIABETIC NEUROPATHY WITH A THIAZOLINE ANTI-HYPERALGESIC AGENT” (CERSCI THERAPEUTICS, INC., priority 2019, published 2020).

In the assay the test system is streptozotocin (STZ)-induced diabetic rats. Description: Mechanical thresholds in streptozotocin (STZ)-induced diabetic rats. The assay is classed as in vivo, rat. The method, then:
Experiments were conducted to determine the effect of Compound 1 in streptozotocin (STZ)-induced diabetic rats. In the first experiment, after obtaining mechanical threshold baselines, STZ (50 mg/kg IV) was administered (Day −7). Two days later, blood glucose levels were measured and animals that were hyperglycemic (>250 mg/dL) continued in the study. On Day 0 the baseline for mechanical thresholds prior to dosing with test articles was established for the rats. Compound 1 (10, 30, and 100 mg/kg PO), gabapentin (100 mg/kg PO) or vehicle was then administered daily for 5 days. On Day 0 mechanical thresholds were obtained at 1, 3, and 6 h post-dose. On Day 1 mechanical thresholds were measured immediately prior to dosing and then 3 h post-dose. The same regimen was followed on Day 3.
In a subsequent study, the same STZ paradigm was followed. However, in addition to the 100 mg/kg Compound 1 group, two additional cohorts received the Compound 1 100 mg/kg dose split into two or three doses per day with 50 mg/kg BID and 33 mg/kg TID. In addition to the gabapentin (100 mg/kg PO) group, a separate cohort received duloxetine (30 mg/kg PO). Additionally, in this study mechanical threshold testing was implemented every day immediately prior to dosing and 2 h post-dose for 7 days.

The mark [1] stands for this setting: subsequent study, 7 days, Compound 1 100 mg/kg QD, 50 mg/kg BID, 33 mg/kg TID, gabapentin 100 mg/kg PO, duloxetine 30 mg/kg PO.

For the compound `NCC1(CC(=O)O)CCCCC1` [gabapentin, reference compound], the “reversal of allodynia (mechanical threshold)” value reads like this: (first experiment, Compound 1 10, 30, 100 mg/kg PO, gabapentin 100 mg/kg PO daily, Day 0 (gabapentin: 1 h post-dose on Day 0 and all time points thereafter)) “significant reversal of allodynia”; under setting [1], “robustly reversed the allodynia throughout the study”.

Take `CNCC[C@H](Oc1cccc2ccccc12)c1cccs1` [duloxetine, reference compound]: under setting [1], the “reversal of allodynia (mechanical threshold)” value was “required successive doses for appreciable activity”.
